Consider 1 compound from patent US20260242359A1, “IRHOM2 INHIBITORS AND USES THEREOF” (NEW YORK SOCIETY FOR THE RELIEF OF THE RUPTURED AND …, priority 2023, published 2026).

What all share (type): cell-based
In experiment [1] the test system is TNFα release from LPS-stimulated THP-1 cells (iRhom2/ADAM17-dependent). As to the kind of experiment: Primary screen (Example 1b): LPS-stimulated TNFα release from THP-1 cells, HTRF. The settings on record: Homo sapiens, overnight pre-incubation, LPS 100 ng/mL, 3 h, normalized against 10 μM Batimastat. Here is the method: (§1) Two separate screens to identify novel small molecule inhibitors of iRhom2/ADAM17 activity were developed. […] Therefore, the primary screen for small molecule inhibitors of iRhom2/ADAM17 was a screen for inhibitors that blocked the release of TNFα from LPS-stimulated THP-1 human myeloid cells, a process that depends on iRhom2 and ADAM17. Since the release of TNFα from THP-1 cells can be blocked at many stages of the LPS/TLR4/iRhom2/ADAM17 pathway, a secondary screen was performed for another iRhom2/ADAM17 selective substrate, Kit-ligand 2 (KL-2) (Maretzky T et al. (July 2013), “iRhom2 controls the substrate selectivity of stimulated ADAM17-dependent ectodomain shedding”, PNAS 110(28): 11433-11438) in a different human cell type, human embryonic kidney cells (HEK 293).
THP-1 cells were plated in low volume 384 wells (10,000 cells per well in 12.6 μL RPMI medium) together with inhibitors or 10 μM BB94 and incubated over night. The next day, TNFα shedding was initiated by stimulation of THP-1 cells with 100 ng/mL LPS (1.8 μL of an 800 ng/mL LPS stock) for 3 hrs at 37° C. The extent of released TNFα was detected with the corresponding HTRF antibodies labeled with europium cryptate (donor) and d2 (acceptor). The HTRF signal was generated by proximity of europium cryptate and d2. All detection reagents were purchased from Cisbio. TNFα detection was performed according to the manufacturer's protocol (Product Insert for Cisbio TNFα (h) Kit Part #62HTNFAPEG & 62HTNFAPEH; https://www.cisbio.com/media/asset/c/i/cisbio_dd_pi_62htnfapeg-62htnfapeh.pdf, accessed Sep. 28, 2020).
Low volume 384 well plates were pre-coated with small molecule library compounds for a final concentration of 20 μM in a 15 μL reaction, or 0.75 μL of 200 μM stock of BB94 in 5% DMSO (final concentration 0.25%). 12.6 μL of cell suspension [8E5/mL; 10,000 cells/well; culture RPMI medium] and pre-incubated at 37° C., 5% CO2, over night. The next day, 1.8 μL of an 800 ng/mL LPS stock was added [final concentration 100 ng/mL in 15 μL assay] and the cells were incubated at 37° C., 5% CO2, for 3 h. Subsequently, 3 μL of the HTRF-mix [used at 1:3 dilution of cisbio HTRF human TNF] was added and the plates were incubated for an additional 2 hrs at 25° C. After an incubation at room temperature for 2 h, the HTRF readout was performed. Then data evaluation for normalization against the 10 μM Batimastat control (=100% […]) was applied.
On the technique in general: In TR-FRET formats the signal depends on donor and acceptor labels being close together.

Experiment [2] concerns PMA-stimulated KL2 release from HEK-293 cells (iRhom2/ADAM17 selective substrate). As to the kind of experiment: Secondary screen (Example 3b): PMA-stimulated KL2 release from HEK-293 cells, AP readout. Particulars: Homo sapiens, HEK293, HEK-293 cells expressing KL2-AP, PMA 100 ng/mL, 2 h, read-out: Secondary Screen IC50 KitL2. The method, then: as §1
(§2) Expression plasmids for alkaline phosphatase (AP)-fused human KL2 and TGFα had been previously designed and generated through gene synthesis followed by subcloning into the pcDNA3.1(+)/Hygro expression vector. […] Subsequently, DNA amplifications were performed to obtain sufficient amounts of the expression vectors. The quality of DNA and gene sequences were confirmed through restriction digest and Sanger sequencing. In parallel, cell culture of HEK-293 cells was initiated. Master and working cell banks were prepared, scaled up and transfected with the respective constructs by electroporation. During cell culturing, cell density and viability were monitored to ensure optimal conditions for the transfections. After PMA stimulation, AP-coupled KL2 or TGFα were detected by measurement of AP activity in the supernatant.
(§3) After electroporation, cells were further cultured in presence of selection antibiotics, hygromycin B, to generate stably transfected polyclonal cell pools. For both assays, KL2 and TGFα shedding, the respective selected pool turned out to be suitable. Final assay conditions were determined for the selected pools. For all experiments, batimastat (BB94, 10 μM) was used as positive control for full inhibition of KL2 or TGFα shedding.
(§4) The wells of sterile 384-well flat bottom clear plates for KL2-AP assays were coated with 10 μL of 0.1 mg/mL poly-d-lysine for 3-4 hr at 25° C. or overnight at 4° C., then washed 2× with PBS and patted dry. 60 μL of cells (40,000/well) were added to the sterile 384-well plate and incubated in Optimem (with 2% FCS and 1% Pen-strep) overnight at 37° C. (5% CO2). After incubation overnight, 55 μL medium were removed with a BioTek EL406 and 10 μL of prediluted compounds were added to the cells for a final concentration of 20 μM. After incubation for 15 min, 15 μL of PMA (100 ng/mL final conc.) were added. The cells were incubated for 2 h at 37° C. (5% CO2). Then, the plates were centrifuged for 5 min at 1000 rpm and 3 μL of the supernatant was transferred to a fresh 384 well plate and 9 μL of AP Balance Buffer was added per well. 12 μL of pNPP p-nitrophenyl phosphate (final 1 M pNPP) was added. AP reaction was performed for 1 h at 37° C. The reaction was stopped by addition of 12 μL of NaOH (1 M final conc.), the plates were centrifuged to remove air bubbles and the absorbance of pNP was measured at 405 nm.

Experiment [3] has as its system PMA-stimulated TGFα release from HEK-293 cells (substrate of iRhom1/ADAM17 and iRhom2/ADAM17). As to the kind of experiment: Counter screen (Example 4b): PMA-stimulated TGFα release from HEK-293 cells, AP readout. Particulars: Homo sapiens, HEK293, HEK-293 cells expressing TGFα-AP, PMA 100 ng/mL, 2 h. The method, then: A tertiary counterscreen was also performed to monitor the release of TGFα, which is a substrate of iRhom1/ADAM17 and iRhom2/ADAM17, so its release should not be blocked by an iRhom2-selective inhibitor (Maretzky T et al. (July 2013), “iRhom2 controls the substrate selectivity of stimulated ADAM117-dependent ectodomain shedding”, PNAS 110(28): 11433-11438; and Li X et al. (May 2015), “iRhoms 1 and 2 are essential upstream regulators of ADAM17-dependent EGFR signaling”, PNAS 112(19): 6080-6085).
as §2, §3
as §4, with “for TGF-AP” for “for KL2-AP”, “cells (20,000/well)” for “cells (40,000/well)”, “and 12” for “and 3”, “well plate.” for “well plate and 9 μL of AP Balance Buffer was added per well.”

Usually IC50 stands for the concentration needed to halve the response being measured. In the case of `CC(=O)Oc1ccccc1Cn1c(C)c(C(=O)NCc2cccs2)sc1=O` [Compound 6], the IC50 in experiment [1] is 4.86 µM; in experiment [2] it was > 40 µM; in experiment [3], > 40 µM.
